Results: US11091495B2, “Substituted imidazo[1,2-c]pyrimidines as PRC2 inhibitors” (Mirati Therapeutics, Inc., priority 2018, dated 2021)
Read-outs that look alike come from different tables or passages of the source.

Columns and labels:
[1] = tested on: PRC2-mediated histone H3 Lys27 trimethylation in Pfeiffer cells (EZH2 A677G); experiment: Tri-Methyl Histone H3 (Lys 27) sandwich ELISA in Pfeiffer cells; format: cell-based, human; settings: 96 hours incubation, read-out: IC50 (nM), Inhibition of EZH2-mediated Histone H3 Trimethylation
Text: The Pfeiffer cell line was established from a […] from a patient having metastatic diffuse large B-cell lymphoma (DLBCL). This cell line expresses a mutant form of the EZH2 enzyme (A677G) that results in enhanced EZH2 activity leading to increased methylation of histone H3 Lys27. Increased trimethylation of histone H3 Lys27 is believed to be implicated in tumorgenesis and poor clinical prognosis in lymphomas (McCabe et al., (2012) Nature 492:108-112).
Inhibition of PRC2-mediated histone H3 methylation by compounds of Formula (I) was measured by ELISA using a Tri-Methyl Histone H3 (Lys 27) Sandwich ELISA Kit (Cell Signaling Tech #7866C) in accordance with the manufacturer's instructions. Briefly, Pfeiffer cells were cultured in RPMI medium supplemented with 10% fetal bovine serum and 1% penicillin and 1% streptomycin in 96 well culture plates at 37° C. to a density of 8000 cells/90 μl/well and the cells were harvested. A series of 3-fold serial dilutions of each test compound of Formula (I) were prepared in RPMI medium and added to the cells at final concentrations ranging from 1 μM to 0.15 nM. The plates were incubated at 37° C. for 96 hours.
After incubation, the cells were pelleted by centrifugation in a pre-cooled 4° C. rotor at 1,100 rpm for 10 min and the supernatant was removed by aspiration. The cell pellet was resuspended in 55 μl of Lysis Buffer (0.4M HCl) and incubated on ice with periodic shaking for 30 minutes. The lysed cells were subjected to centrifugation at 4,200 rpm for 10 min at 4° C. and the supernatant containing acid-soluble proteins was collected and the remainder discarded. The acid-soluble proteins were brought to a neutral pH by the addition of 20 μl of Neutralization Buffer (1 M Sodium phosphate, dibasic (pH 12.5), 2.5 mM DTT and 1 mM PMSF) and the neutralized lysates were analyzed by ELISA.
A 65 μl aliquot of each cell lysate was added to a well of a microwell strip, the microwells were sealed using tape and incubated either at 37° C. for two hours or at 4° C. overnight. After incubation, the tape was removed at the microwells were washed four times using 200 μl of 1× Wash Buffer. To each washed microwell, a 100 μl aliquot of an anti-trimethyl histone H3 Lys27 Detection Antibody solution was added and the microwells were incubated at 37° C. for one hour. […]
A 100 μl aliquot of an HRP-linked secondary antibody was added to each well, the wells were sealed with tape and incubated at 37° C. for 30 min. […] The degree of histone H3 trimethylation was determined using a spectrophotometric readout by measuring the absorbance at 450 nm and then calculating the amount of trimethylated histone H3. A=≤100 nM; B=>100 nM-≤500 nM; C=>500 nM and N.D.=not determined.

[2] = tested on: Karpas 422 cells (EZH2 Y641N); experiment: Karpas 422 cell viability (Cell Titre Glo); format: cell-based, human; settings: Day 4, Day 7 or Day 11 (time point not given), read-out: IC50 (nM), Inhibiting Proliferation of Cells Expressing an Activating Mutant Form of EZH2
Procedure: Karpas 422 cell line is a human B cell non-Hodgkin's lymphoma cell line established from a patient having DLBCL. This EZH2 heterozygotic cell line expresses a mutant form of EZH2 enzyme (Y641N) that increases histone H3 methylation and this mutation has been implicated in the tumorgenesis of lymphomas, such as DLBCL.
Karpas 422 cells (PHE cat no.,06101702) were cultured in RPMI medium supplemented with 20% fetal bovine serum and 1% penicillin/1% streptomycin and plated at a density of 1000 cells/90 μl/well in 96 well white assay plates. A dose response curve for compounds of the present invention was determined by adding a 10 μl aliquot of stock solutions of varying concentrations of compounds to the same medium in each well, over a concentration range of 10 μM using 3-fold dilutions to a final concentration of 1.5 nM. The plates were incubated at 37° C. for predetermined time periods, Day 4, Day 7, or Day 11, and the viability of the cells was measured using a CTG assay kit (Cell Titre Glo; Promega cat. no G7573) on Day 4 and Day 7 in accordance with the manufacturer's instructions.
For the viability assay for the Day 11 plates, the plates were subjected to centrifugation at 1100 rpm for five minutes on Day 7 and the supernatant was removed by aspiration. The cells were resuspended in 90 μl aliquot of the appropriate growth medium lacking the compound followed by addition of 10 μl of a 10× stock of the same compound at the same concentration. The viability of the Day 11 cells was measured using the CTG assay kit described above in accordance with the manufacturer's instructions. The IC50 values for each compound at each predetermined time point were calculated using Graph pad PRISM software and the results are shown in Table 15. A=≤250 nM; B=<250 nM-≤500 nM; and C=>500 nM.

[3] = molecular target: purified human, His-tagged PRC2 complex (Homo sapiens (Human), UniProt O75530); experiment: Hot Spot HMT assay of PRC2 enzymatic activity; format: biochemical; settings: 10 nM PRC2 complex, core histone H3, 1 uM 3H-SAM, 1 hr at 30° C; read-out: IC50, Inhibition of PRC2-mediated Enzymatic Activity
Chain of purified human, His-tagged PRC2 complex (Q15910 whole entry): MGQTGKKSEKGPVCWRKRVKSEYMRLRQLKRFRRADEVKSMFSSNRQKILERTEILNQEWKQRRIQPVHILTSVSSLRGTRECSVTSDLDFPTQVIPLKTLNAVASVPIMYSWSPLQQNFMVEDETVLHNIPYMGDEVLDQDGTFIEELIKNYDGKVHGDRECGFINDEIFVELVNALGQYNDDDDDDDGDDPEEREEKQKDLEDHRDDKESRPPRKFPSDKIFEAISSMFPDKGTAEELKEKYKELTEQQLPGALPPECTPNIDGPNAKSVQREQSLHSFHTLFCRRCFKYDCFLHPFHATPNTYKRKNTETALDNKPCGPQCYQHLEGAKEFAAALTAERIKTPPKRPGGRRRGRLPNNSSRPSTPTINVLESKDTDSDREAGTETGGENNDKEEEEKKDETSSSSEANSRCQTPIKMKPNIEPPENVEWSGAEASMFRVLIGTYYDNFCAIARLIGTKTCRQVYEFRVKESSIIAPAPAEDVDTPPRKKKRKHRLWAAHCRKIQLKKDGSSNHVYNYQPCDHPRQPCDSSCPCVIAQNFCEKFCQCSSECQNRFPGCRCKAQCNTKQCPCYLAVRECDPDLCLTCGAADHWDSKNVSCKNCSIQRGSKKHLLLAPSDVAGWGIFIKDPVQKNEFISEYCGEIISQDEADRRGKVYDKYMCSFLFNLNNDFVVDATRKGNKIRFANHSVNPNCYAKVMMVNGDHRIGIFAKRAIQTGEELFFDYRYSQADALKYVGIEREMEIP
Chain of purified human, His-tagged PRC2 complex (O75530 whole entry): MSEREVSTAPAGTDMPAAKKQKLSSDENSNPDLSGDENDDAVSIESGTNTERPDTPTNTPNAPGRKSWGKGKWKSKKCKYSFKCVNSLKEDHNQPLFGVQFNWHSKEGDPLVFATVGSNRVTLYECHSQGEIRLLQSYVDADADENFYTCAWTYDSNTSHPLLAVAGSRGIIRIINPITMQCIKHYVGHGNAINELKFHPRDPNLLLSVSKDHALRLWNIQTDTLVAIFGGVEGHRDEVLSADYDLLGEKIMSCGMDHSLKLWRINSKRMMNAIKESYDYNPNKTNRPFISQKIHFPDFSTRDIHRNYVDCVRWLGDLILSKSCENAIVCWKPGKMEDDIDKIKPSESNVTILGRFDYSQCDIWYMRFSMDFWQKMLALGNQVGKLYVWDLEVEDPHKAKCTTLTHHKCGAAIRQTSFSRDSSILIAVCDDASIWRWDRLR
Chain of purified human, His-tagged PRC2 complex (Q15022 whole entry partner): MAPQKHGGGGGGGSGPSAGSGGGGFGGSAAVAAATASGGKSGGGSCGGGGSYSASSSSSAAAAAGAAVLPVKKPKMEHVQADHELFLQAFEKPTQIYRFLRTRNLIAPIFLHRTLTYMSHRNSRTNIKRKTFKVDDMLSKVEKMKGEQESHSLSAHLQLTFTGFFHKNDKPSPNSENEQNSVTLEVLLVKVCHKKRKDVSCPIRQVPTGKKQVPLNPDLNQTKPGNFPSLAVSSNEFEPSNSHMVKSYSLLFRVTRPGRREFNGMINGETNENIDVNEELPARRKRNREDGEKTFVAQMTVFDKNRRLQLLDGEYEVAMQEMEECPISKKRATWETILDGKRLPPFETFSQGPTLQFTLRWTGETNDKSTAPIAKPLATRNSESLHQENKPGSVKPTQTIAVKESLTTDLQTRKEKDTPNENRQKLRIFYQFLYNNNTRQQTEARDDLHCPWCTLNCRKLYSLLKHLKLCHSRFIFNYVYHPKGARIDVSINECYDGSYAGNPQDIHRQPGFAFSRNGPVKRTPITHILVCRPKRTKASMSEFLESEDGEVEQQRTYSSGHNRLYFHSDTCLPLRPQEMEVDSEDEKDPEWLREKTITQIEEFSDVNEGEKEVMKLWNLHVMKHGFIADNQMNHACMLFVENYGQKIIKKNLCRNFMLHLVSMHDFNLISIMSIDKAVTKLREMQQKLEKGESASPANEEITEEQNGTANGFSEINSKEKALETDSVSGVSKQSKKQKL
Chain of purified human, His-tagged PRC2 complex (Q6ZN18 whole entry partner): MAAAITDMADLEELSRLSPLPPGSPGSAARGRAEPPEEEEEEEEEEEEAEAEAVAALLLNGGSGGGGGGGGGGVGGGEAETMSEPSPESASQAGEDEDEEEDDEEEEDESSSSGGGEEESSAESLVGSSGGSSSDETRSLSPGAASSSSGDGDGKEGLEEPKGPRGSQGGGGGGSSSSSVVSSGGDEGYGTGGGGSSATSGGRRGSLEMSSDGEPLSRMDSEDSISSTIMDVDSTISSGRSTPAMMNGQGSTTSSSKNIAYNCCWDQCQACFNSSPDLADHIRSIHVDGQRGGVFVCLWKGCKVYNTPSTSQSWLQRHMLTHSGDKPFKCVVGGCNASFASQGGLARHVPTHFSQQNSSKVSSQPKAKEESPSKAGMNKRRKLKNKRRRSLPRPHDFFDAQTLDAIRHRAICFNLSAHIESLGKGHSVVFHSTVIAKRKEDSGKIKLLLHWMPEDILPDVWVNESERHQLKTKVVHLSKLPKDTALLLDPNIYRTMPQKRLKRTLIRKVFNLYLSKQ
Chain of purified human, His-tagged PRC2 complex (Q09028 whole entry partner): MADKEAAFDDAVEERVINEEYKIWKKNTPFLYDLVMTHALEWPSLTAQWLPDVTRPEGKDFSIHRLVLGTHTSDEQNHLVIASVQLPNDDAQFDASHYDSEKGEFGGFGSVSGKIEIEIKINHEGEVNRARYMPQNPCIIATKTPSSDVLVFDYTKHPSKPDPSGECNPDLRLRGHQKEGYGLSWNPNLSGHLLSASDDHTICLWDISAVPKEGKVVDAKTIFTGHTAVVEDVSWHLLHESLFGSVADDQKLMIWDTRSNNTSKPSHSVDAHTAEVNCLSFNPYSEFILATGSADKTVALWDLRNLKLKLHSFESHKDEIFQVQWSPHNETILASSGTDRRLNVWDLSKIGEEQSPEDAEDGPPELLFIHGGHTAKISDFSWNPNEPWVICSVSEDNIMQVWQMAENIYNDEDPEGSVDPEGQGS
Text: The assay uses purified human, His-tagged PRC2 complex, including N-terminal His-tagged EZH2 enzyme, N-terminal Flag-tagged embryonic ectoderm development protein (EED), N-terminal His-tagged suppressor of zeste 12 (SUZ12), N-terminal His-tagged AEBP2, and N-terminal His-tagged RbAp48. In this assay, the transfer of the tritiated methyl group from radiolabeled S-adenosyl methionine (SAM) to purified core histone protein by EZH2 is quantitated after filtration to determine the activity of the core PRC2 complex in the presence and absence of compound.
The initial starting concentration for the serial dilutions of each compound was 1.0 μM. […] SAH (S-(5-adenosyl)-L-homocysteine) was used as a positive control for assay validation.
An aliquot of each serial dilution of test compound was added to deep 384 well plate using Acoustic Technology instrument (Echo 550, LabCyte) containing reaction buffer (50 mM Tris-HCl (pH 8.)), 0.01% Brij35, 1 mM EDTA, 1 mM DTT, 1 mM PMSF and 1% DMSO), 10 nM purified PRC2 complex and 0.05 mg/ml core histone H3 in a 5 μl volume. The reaction was mixed gently and then pre-incubated for 20 min at 30° C. […] After 1 hr, the reaction product was detected using a filter binding method and the amount of tritiated H3 core histone was quantitated using a scintillation counter.

Row | Compound | IC50 ([1]; Homo sapiens) [nM] | IC50 ([2]; Homo sapiens) [nM] | IC50 [1] [nM] | IC50 [2] [nM] | IC50 [3] [nM]
1 | Cc1nc(N2CCOCC2)ccc1-c1cnc(NCc2c(F)ccc3c2CCO3)n2cc(C#N)nc12 [Example 56] | 100 to 500 | ≤ 250 | – | – | –
2 | CN1CCC1c1ccc(-c2cnc(NCc3c(F)ccc4c3CCO4)n3cc(C#N)nc23)cc1 (stereo not drawn) [Example 221] | 100 to 500 | ≤ 250 | – | – | –
3 | N#Cc1cn2c(NCc3c(F)ccc4c3CCO4)ncc(-c3cnn(CC4CCOC4)c3)c2n1 (stereo not drawn) [compound 154] | – | – | 100 to 500 | 250 to 500 | –
4 | N#Cc1cn2c(NCc3c(F)ccc4c3CCO4)ncc(-c3cnc(C4CC4)cn3)c2n1 [Example 70] | < 100 | ≤ 250 | – | – | < 100
